Calls of active or inactive are those of the source. The rule behind the calls is not given here.

The target in assay [1] is Aurora kinase B (Homo sapiens) (UniProt Q96GD4). Kind of assay: Inhibition of AURKB (unknown origin) at 1 uM by Ambit Kinomescan binding assay relative to control.
The target in assay [2] is STE20-like serine/threonine-protein kinase (Homo sapiens) (UniProt Q9H2G2). The assay can be described thus: Inhibition of SLK (unknown origin) at 1 uM by Ambit Kinomescan binding assay relative to control.
Assay [3] concerns the target Macrophage colony-stimulating factor 1 receptor (Homo sapiens) (UniProt P07333). Kind of assay: Inhibition of CSF1R (unknown origin) at 1 uM by Ambit Kinomescan binding assay relative to control; values are per cent of control.
Assay [4] concerns the target T1, Aurora kinase C (Homo sapiens) (UniProt Q9UQB9).
T1 sequence (whole entry): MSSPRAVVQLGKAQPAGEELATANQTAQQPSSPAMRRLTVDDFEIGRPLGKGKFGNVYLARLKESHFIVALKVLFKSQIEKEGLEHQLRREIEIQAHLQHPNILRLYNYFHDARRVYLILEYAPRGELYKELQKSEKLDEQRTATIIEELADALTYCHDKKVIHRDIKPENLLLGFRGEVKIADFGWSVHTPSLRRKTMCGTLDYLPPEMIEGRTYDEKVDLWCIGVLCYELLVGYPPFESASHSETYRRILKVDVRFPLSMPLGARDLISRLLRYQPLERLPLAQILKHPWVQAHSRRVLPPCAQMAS
The assay can be described thus: Inhibition of AURKC (unknown origin) at 10 uM by Ambit Kinomescan binding assay.

In assay [5] the target is Serine/threonine-protein kinase 32C (Homo sapiens) (UniProt Q86UX6). Kind of assay: Inhibition of YANK3 (unknown origin) at 10 uM by Ambit Kinomescan binding assay.
The nature of assay [6]: Inhibition of NEK6/7 K2 labeling site harbouring DIKPANVFITATGVVK in human Huh-7 cells at 10 uM by KiNativ Profiling analysis relative to control. The settings on record: condition cancer.
Assay [7] has as its target Ribosomal protein S6 kinase alpha-3 (Homo sapiens) (UniProt P51812). Kind of assay: Inhibition of RSK2 Domain 2 K1 labeling site in human Huh-7 cells at 1 uM by KiNativ Profiling analysis relative to control. Format: cell-based.
The target of assay [8] is Tyrosine-protein kinase ABL2 (Homo sapiens, UniProt P42684). The assay can be described thus: Inhibition of ABL2 (unknown origin) at 10 uM by Ambit Kinomescan binding assay relative to control; values are per cent of control.
Assay [9] deals with Serine/threonine-protein kinase TNNI3K (Homo sapiens) (UniProt Q59H18). Kind of assay: Inhibition of TNNI3K (unknown origin) at 10 uM by Ambit Kinomescan binding assay relative to control; values are per cent of control.
The target in assay [10] is Tyrosine-protein kinase JAK1 (Homo sapiens) (UniProt P23458). Kind of assay: Inhibition of JAK1 domain ACT labeling site in human Huh-7 cell lysate at 1 uM by KiNativ Profiling analysis relative to control. In kind it is subcellular.
Assay [11] addresses T2, Phosphatidylinositol 5-phosphate 4-kinase type-2 alpha (Homo sapiens) (UniProt P48426).
T2 sequence (whole entry): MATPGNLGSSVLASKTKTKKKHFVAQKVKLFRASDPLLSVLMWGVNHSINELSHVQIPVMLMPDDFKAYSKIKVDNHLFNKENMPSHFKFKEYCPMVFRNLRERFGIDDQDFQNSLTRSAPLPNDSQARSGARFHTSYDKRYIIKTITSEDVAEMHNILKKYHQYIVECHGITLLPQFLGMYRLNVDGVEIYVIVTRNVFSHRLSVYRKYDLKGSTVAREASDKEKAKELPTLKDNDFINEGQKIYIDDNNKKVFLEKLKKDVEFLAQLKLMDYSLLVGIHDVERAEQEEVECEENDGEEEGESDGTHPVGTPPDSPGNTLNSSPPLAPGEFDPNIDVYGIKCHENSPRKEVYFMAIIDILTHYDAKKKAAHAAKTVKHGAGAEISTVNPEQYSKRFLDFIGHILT
Kind of assay: Inhibition of PIP4K2A ATP labeling site harbouring TVKHGAGAEISTVNPEQYSK in human Huh-7 cell lysate at 1 uM by KiNativ Profiling analysis relative to control. In kind it is subcellular.

For assay [12], the target named is T3, Serine/threonine-protein kinase TBK1 (Homo sapiens) (UniProt Q9UHD2).
T3 sequence (whole entry): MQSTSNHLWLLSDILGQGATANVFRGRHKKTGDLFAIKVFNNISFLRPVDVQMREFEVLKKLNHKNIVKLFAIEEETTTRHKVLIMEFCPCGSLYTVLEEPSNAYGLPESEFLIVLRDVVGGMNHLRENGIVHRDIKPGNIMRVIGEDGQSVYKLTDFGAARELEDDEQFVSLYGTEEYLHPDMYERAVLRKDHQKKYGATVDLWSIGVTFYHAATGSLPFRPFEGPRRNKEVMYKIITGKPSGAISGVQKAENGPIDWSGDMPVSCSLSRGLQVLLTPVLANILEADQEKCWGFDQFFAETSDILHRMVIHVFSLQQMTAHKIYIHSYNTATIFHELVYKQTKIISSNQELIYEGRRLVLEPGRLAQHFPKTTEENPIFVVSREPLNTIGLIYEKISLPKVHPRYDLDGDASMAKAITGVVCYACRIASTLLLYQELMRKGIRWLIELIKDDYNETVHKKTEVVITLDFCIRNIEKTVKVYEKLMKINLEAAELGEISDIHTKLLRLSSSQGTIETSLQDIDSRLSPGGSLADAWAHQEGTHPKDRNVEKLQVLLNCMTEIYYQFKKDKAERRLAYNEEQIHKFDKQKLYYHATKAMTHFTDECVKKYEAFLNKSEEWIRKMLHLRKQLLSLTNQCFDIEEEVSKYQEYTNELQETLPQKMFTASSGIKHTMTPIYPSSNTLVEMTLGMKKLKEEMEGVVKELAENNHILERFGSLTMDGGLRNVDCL
The assay can be described thus: Inhibition of TBK1 Lys1 labeling site in human Huh-7 cell lysate at 1 uM by KiNativ Profiling analysis relative to control. In kind it is subcellular.

In assay [13] the target is Microtubule-associated serine/threonine-protein kinase 2 (Homo sapiens) (UniProt Q6P0Q8). Kind of assay: Inhibition of MAST2 Lys2 labeling site harbouring DLKPDNLLITSMGHIK in human Huh-7 cells at 1 uM by KiNativ Profiling analysis relative to control. Format: cell-based.
Sequence of Microtubule-associated serine/threonine-protein kinase 2 (Homo sapiens) (Q6P0Q8 whole entry): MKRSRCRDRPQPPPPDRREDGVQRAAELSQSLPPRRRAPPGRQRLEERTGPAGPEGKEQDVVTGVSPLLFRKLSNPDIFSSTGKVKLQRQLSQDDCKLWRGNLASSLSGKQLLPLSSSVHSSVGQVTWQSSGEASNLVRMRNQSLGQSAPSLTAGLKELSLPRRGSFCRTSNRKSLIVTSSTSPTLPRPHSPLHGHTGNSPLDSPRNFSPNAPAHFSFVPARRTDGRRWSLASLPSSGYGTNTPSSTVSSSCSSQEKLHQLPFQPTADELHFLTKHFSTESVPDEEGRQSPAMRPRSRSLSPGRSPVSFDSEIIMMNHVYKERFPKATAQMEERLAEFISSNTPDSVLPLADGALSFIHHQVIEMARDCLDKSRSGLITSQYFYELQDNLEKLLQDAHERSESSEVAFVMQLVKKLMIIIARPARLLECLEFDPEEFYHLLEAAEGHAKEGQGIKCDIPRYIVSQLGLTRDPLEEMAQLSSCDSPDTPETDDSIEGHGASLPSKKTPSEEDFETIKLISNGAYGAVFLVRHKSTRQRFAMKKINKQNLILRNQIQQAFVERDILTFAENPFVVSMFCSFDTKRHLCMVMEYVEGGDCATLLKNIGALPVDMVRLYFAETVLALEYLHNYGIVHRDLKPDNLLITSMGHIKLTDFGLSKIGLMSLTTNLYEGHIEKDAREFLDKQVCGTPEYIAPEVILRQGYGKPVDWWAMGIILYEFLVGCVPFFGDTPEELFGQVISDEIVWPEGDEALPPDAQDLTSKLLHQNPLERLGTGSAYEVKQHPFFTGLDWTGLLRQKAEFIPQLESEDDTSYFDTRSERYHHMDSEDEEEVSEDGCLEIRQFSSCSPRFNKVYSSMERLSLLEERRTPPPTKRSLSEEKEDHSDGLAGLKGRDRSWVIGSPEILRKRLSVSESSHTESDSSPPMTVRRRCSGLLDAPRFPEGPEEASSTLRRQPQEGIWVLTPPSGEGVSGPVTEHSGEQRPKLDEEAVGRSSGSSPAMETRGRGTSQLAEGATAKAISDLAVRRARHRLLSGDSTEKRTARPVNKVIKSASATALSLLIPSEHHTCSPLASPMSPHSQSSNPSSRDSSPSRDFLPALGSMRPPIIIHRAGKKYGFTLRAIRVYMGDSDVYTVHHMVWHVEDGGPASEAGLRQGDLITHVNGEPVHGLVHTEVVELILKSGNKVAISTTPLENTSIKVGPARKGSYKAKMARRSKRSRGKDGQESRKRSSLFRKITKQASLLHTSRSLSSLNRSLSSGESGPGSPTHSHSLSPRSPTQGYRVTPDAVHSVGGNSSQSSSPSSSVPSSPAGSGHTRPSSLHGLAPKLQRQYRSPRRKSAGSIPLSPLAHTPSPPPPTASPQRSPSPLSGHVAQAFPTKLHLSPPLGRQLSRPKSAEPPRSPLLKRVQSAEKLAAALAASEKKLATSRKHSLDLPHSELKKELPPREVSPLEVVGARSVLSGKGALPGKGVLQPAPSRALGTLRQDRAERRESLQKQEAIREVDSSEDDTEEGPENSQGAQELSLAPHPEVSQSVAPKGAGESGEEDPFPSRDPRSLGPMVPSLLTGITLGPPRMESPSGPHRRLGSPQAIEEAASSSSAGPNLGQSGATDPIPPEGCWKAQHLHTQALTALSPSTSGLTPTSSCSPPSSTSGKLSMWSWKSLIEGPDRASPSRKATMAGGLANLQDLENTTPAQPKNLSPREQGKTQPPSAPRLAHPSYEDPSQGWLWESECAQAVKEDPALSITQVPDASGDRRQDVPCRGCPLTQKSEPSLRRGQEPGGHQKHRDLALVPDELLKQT

Sequence of Ribosomal protein S6 kinase alpha-3 (Homo sapiens) (P51812 whole entry, the tested form may be a part): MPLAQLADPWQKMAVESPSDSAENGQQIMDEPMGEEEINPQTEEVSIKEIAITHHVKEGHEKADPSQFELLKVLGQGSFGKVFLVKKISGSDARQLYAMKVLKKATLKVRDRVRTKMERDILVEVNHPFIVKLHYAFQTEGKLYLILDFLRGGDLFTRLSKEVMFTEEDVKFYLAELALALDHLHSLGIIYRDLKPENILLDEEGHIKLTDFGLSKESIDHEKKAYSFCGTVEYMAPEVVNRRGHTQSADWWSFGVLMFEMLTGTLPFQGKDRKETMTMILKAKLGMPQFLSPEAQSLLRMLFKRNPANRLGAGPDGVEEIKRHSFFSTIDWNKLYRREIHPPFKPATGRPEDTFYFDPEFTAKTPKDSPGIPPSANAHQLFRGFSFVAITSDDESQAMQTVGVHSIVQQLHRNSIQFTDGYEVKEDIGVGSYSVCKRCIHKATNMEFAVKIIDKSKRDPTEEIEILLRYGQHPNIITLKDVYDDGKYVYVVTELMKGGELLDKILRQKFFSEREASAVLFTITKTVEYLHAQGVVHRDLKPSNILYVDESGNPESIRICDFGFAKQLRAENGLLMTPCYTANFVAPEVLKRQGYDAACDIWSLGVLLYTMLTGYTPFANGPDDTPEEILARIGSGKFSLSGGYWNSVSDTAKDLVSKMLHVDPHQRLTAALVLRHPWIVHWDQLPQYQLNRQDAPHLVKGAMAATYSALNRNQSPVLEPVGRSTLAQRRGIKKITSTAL
Sequence of STE20-like serine/threonine-protein kinase (Homo sapiens) (Q9H2G2 whole entry, looked up): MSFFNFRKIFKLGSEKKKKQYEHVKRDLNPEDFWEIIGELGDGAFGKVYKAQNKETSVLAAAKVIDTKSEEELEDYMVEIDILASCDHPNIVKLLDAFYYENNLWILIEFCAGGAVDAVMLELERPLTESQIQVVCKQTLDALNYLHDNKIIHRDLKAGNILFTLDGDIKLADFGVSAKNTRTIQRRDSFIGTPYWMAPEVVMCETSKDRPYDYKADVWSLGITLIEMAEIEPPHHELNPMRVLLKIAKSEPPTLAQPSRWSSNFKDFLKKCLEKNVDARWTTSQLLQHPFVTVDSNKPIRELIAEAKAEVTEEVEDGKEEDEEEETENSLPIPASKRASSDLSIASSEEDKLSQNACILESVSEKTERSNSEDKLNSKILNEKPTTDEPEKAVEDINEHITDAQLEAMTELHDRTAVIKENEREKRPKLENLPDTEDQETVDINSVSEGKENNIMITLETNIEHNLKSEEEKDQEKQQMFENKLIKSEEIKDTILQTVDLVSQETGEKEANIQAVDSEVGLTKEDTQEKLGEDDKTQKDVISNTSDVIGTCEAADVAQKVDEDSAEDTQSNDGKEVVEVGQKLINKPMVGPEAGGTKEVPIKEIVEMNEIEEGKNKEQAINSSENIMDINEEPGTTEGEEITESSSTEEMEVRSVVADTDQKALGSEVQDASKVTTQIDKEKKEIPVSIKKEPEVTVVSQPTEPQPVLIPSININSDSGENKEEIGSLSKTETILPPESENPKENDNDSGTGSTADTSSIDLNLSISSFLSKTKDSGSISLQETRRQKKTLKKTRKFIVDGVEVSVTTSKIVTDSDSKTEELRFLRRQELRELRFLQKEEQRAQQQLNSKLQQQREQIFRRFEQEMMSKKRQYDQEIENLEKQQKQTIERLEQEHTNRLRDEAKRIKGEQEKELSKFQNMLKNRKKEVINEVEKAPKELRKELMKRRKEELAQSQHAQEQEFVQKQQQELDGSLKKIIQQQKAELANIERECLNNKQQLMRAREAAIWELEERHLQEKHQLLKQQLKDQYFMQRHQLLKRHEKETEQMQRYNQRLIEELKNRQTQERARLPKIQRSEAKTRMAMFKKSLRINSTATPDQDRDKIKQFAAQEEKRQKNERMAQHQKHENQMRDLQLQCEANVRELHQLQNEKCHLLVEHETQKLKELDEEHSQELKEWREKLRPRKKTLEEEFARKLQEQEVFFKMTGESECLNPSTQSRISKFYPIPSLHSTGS
Sequence of Macrophage colony-stimulating factor 1 receptor (Homo sapiens) (P07333 whole entry): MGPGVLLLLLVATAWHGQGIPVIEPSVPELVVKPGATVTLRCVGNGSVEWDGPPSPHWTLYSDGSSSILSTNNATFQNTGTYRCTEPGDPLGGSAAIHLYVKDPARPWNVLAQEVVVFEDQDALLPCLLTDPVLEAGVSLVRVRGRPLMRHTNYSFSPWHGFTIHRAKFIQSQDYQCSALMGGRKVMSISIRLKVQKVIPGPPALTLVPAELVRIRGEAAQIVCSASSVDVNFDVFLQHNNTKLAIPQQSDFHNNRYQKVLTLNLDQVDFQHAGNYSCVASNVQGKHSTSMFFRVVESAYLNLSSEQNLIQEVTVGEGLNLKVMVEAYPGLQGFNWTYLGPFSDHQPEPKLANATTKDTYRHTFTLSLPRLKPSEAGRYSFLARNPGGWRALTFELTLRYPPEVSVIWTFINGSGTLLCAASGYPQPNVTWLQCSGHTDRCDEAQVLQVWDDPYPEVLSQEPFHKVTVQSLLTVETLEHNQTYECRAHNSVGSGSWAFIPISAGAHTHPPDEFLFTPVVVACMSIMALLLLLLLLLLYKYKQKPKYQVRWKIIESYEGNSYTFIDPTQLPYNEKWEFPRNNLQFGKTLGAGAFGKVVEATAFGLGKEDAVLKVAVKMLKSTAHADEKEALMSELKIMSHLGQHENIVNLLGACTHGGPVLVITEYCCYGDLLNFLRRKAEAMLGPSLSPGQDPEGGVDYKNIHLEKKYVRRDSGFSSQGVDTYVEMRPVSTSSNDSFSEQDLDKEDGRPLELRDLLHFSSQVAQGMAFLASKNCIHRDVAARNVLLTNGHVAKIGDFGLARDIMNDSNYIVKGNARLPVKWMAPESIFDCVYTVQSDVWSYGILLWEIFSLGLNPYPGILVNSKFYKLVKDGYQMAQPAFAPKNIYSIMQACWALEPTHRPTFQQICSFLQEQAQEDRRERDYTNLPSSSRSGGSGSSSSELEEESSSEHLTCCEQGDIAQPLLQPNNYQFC
Sequence of Aurora kinase B (Homo sapiens) (Q96GD4 whole entry): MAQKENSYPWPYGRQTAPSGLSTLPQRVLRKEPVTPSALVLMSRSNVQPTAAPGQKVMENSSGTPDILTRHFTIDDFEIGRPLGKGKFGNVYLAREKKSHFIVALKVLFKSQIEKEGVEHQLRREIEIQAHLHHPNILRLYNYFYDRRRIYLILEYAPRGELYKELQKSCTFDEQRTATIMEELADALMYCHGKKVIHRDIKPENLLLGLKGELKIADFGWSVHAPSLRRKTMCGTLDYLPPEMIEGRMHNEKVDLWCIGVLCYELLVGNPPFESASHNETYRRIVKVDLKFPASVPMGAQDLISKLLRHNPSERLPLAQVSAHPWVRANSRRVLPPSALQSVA

With `CCN1CCN(Cc2ccc(NC(=O)c3ccc(C)c(/C=C/c4cnc5[nH]ccc5c4OC)c3)cc2C(F)(F)F)CC1`, the inhibition in assay [1] was determined as 65%; in assay [2], 13%. This compound gave a residual activity in assay [3] of 0.75%.

For the compound `CCN1CCN(Cc2ccc(NC(=O)c3ccc(C)c(Oc4ccnc5[nH]ccc45)c3)cc2C(F)(F)F)CC1`, the inhibition entry in [4], in assay [5] and in assay [7] was “inactive” each time. The inhibition at 10 µM in assay [6] amounted to 2.8%. Besides, the % of control in assay [8] is 0.6%. This compound displayed a residual activity in assay [9] of 4.8%.

For the compound `CNc1cc(Oc2cc(C(=O)Nc3cc(-n4cnc(C)c4)cc(C(F)(F)F)c3)ccc2C)ncn1`, in assay [10], the inhibition stood at 4.9%.

`CNc1cc(Oc2cc(C(=O)Nc3cc(N4CCN(C)CC4)cc(C(F)(F)F)c3)ccc2C)ncn1`: the inhibition in [11] is -5.4%; in assay [12], -1.5%; in assay [13] it was 53.8%.

(Values after ChEMBL document CHEMBL5696442, “Discovery of type II inhibitors of TGFβ-activated kinase 1 (TAK1) and mitogen-activated protein kinase kinase kinase kinase 2 (MAP4K2)” (J Med Chem, 2015).)
